Source: ChEMBL document CHEMBL2163195, “Development of potent carbonic anhydrase inhibitors incorporating both sulfonamide and sulfamide groups” (J Med Chem, 2012)

biological target: Carbonic anhydrase 9 (Homo sapiens, UniProt Q16790)

SMILES | Ki
CC(=O)Nc1ccc(S(=O)(=O)Nc2ccc(C(=O)NCCc3ccc(S(N)(=O)=O)cc3)cc2)cc1 | 4.5 nM
NS(=O)(=O)NCc1ccc(S(N)(=O)=O)cc1 | 65 nM
NS(=O)(=O)NCCc1ccc(S(N)(=O)=O)cc1 | 611 nM
NS(=O)(=O)Nc1ccc(S(=O)(=O)Nc2ccc(C(=O)O)cc2)cc1 | 57 nM
NS(=O)(=O)Nc1ccc(S(N)(=O)=O)cc1 | 64 nM
NS(=O)(=O)Nc1ccc(S(=O)(=O)NCCc2ccc(S(N)(=O)=O)cc2)cc1 | 65 nM
NS(=O)(=O)Nc1ccc(S(=O)(=O)Nc2ccc(C(=O)NCCc3ccc(S(N)(=O)=O)cc3)cc2)cc1 | 0.4 nM
NS(=O)(=O)Nc1ccc(S(=O)(=O)NCc2ccc(S(N)(=O)=O)cc2)cc1 | 35 nM
NS(=O)(=O)Nc1ccc(S(=O)(=O)Nc2ccc(S(N)(=O)=O)cc2)cc1 | 27 nM
